The values that follow come from patent US11317632B2, “Materials amd methods for buffering active chlorine solutions” (Pharmocon LLC, priority 2017, dated 2022).

Like-named read-outs stand apart in the source and are kept apart here. Where only a bound is given, the exact number is not on record here.

A short description of data set [1]: Titration curves of buffers with standardized 0.1 N NaOH or HCl, pH meter. The class given is physicochemical. Particulars: for pKa: distilled water; for buffering range in the presence of magnesium: magnesium added. On the procedure: Aqueous solutions containing chlorine and/or hypochlorous acid are referred to herein as free active chlorine or “FAC” solutions, regardless of their method of preparation and without regard to other species that may be present. Concentrations of HOCl are reported herein as ppm active chlorine, as determined by colorimetry using N,N-diethyl-p-phenylenediamine (DPD) as indicator. Samples were diluted 999:1 with distilled water prior to addition of a DPD-1 tablet (Pollardwater, New Hyde Park, N.Y.) to a 10-ml sample, and the value for ppm chlorine was determined with a colorimeter (MW-10, Milwaukee Instruments, Rocky Mount, N.C.) Chloride concentrations were determined by agentometric (Mohr) titration. Titration curves were determined by dissolving 40 mg of buffer in 20 ml distilled water and adding standardized 0.1 N NaOH or HCl, with pH measured with a digital pH meter calibrated daily at pH 4.0. New and known buffers were synthesized by the cited literature methods, varying the starting materials as required.

For data set [2] the following is noted: cited from earlier work.
Setting [3] is: forward titration with NaOH, no additive.

As to `O=P(O)(O)c1cccc(S(=O)(=O)O)c1` [3-phosphonobenzenesulfonic acid], in data set [1] (no additive), the “buffering from first phosphonate proton” value is given as 1.5-2 pH and the “moderate buffering from second phosphonate proton” value was 6.5-7.5 pH.
On to `O=P(O)(O)c1ccccc1` [Phenyphosphonic acid], for which the “second pKa” value in data set [2] was “over 7”.
In the case of `O=P(O)(O)c1cccc(P(=O)(O)O)c1P(=O)(O)O` [benzene-1,2,3-triphosphonic acid], in data set [1] (after addition of calcium nitrate, back titration with HCl), the missing proton result was “present ant titratable”. Further, in data set [1] (setting [3]), the “pH at which three protons are titrated” value was 2-4 pH and the “pH at which two protons are titrated” value is 7-11 pH.
For the molecule `O=P(O)(O)c1ccc(P(=O)(O)O)c(P(=O)(O)O)c1` [benzene-1,2,4-triphosphonic acid], the “buffering at pH 4-6” value is “completely absent” in data set [1] (pure triacid, no additive) and “present” in data set [1] (zinc nitrate added, back titration with HCl).
Turning to `O=P(O)(O)c1ccccc1P(=O)(O)O` [benzene-1,2-diphosphonic acid], in data set [1] (added strontium nitrate, compared to no additive), the “third pKa value” is reported as “relatively unchanged”. The pKa (in general, the negative logarithm of the acid dissociation constant) in data set [1] (added strontium nitrate, read-out: first two pKa values) is 3 to 4; in data set [1] (added strontium nitrate, read-out: fourth pKa value) it was 9.5 to 10.5; in data set [1] (magnesium sulfate present, read-out: fourth pKa), under 8; in data set [1] (one equivalent of boric acid, read-out: third and fourth pKa values) it was 7 to 9. In addition, the “buffering from the fourth pKa / fourth pKa value” in data set [1] (no additive) is given as “cannot be observed”. Also, the extended buffering in data set [1] (one equivalent of boric acid, overlap with boric acid buffering) was 8-9 pH.
For the molecule `O=P(O)(O)c1cccc(P(=O)(O)O)c1` [benzene-1,3-diphosphonic acid], the pKa values observed result in data set [1] (no additive) is given as “typical benzenephosphonic acid pKa values”.
Turning to `O=P(O)(O)C(Cl)(Cl)P(=O)(O)O` [clodronic acid, dichloromethanediphosphonic acid, reference compound], in data set [1] (zinc nitrate (2 equivalents) added prior to titration, read-out: third and fourth pKa values), the pKa was in the range of 3.5 to 4.5. Further, in data set [1], the “buffering range in the presence of magnesium” value was 5-8 pH. For the same molecule, in data set [1] (no additive), the “buffering from the first two pKas / first two protons” value is on record as 2-3 pH, the “buffering from the fourth pKa / fourth pKa value” is 9-10 pH and the “buffering from the third pKa / third proton” value is 6-7 pH.
For the molecule `O=P(O)(O)C(F)(F)C(F)(F)F` [pentafluoroethylphosphonic acid], in data set [1] (no additive), the “buffering from the first pKa” value was 2.5-3.5 pH and the “buffering from the second pKa” value is on record as 4-5 pH.
Turning to `O=P(O)(O)O` [phosphate, phosphoric acid, reference compound], in data set [1] (no additive), the “buffering capacity in the pH range 3-6” value was “no buffering capacity”; the “buffering capacity, lower range” value is given as 2-3 pH; the “buffering capacity, upper range” value is 7-8 pH.
Consider `O=P(O)(O)c1cccc(P(=O)(O)O)n1` [pyridine-2,6-diphosphonic acid], for which the “buffering range in the presence of magnesium” value in data set [1] is on record as 2-3 pH. Also, in data set [1] (no additive), the “buffering, titration with NaOH from pH 2 to 11” value is “only modest buffering”.
